Where “and” joins values, the source holds several entries; their conditions need not be identical. Equal entries are not always repeated.
Experiments:
S. aureus = settings: 2.5 minute exposure; cited from earlier work
E. coli = settings: 2.5 minute exposure; cited from earlier work
MRSA = settings: 2.5 minute exposure; cited from earlier work
A. niger = settings: 2.5 minute exposure; cited from earlier work
B. subtilis (spore) = settings: 2.5 minute exposure; cited from earlier work
[1] = low concentrations (20 mg/L) of gas; cited from earlier work
[2] = test system: Bacillus subtilis var. niger spores; assay: sporicidal effects of gas phase ClO2 on inoculated washers; format: cell-based; parameters: key to Sterility (Day 14): Yes indicates no turbidity was observed, sample is sterile.; No indicates turbidity observed, sample is not sterile; settings: 4 hours; for Log Reduction: versus average of 2D and 2E
Method: Sterile washers were inoculated with 1.4×10^7 Bacillus subtilis var. niger spores and allowed to dry overnight. Solutions were prepared in sterile jars to obtain different chlorine dioxide levels. Five washers were suspended in each jar and exposed to one chlorine dioxide concentration for 4 hours in the dark. Two washers from each chlorine dioxide level were enumerated for log reduction and three washers from each chlorine dioxide concentration were analyzed for sterility. Log reduction samples were analyzed by placing one washer into 10 ml sterile Difco DE Neutralizing Broth, shaking for approximately 30 seconds and spread plating, in duplicate, onto Difco Trypticase Soy agar plates incubated at 35° C. for 48 hours. Sterility was determined by placing one washer in 50 ml sterile Difco Trypticase Soy Broth incubated at 35° C. for 14 days and visually checked daily for turbidity. Appropriate positive and negative controls were run with test samples.

[3] = drank solution, up to a concentration of 24 ppm; cited from earlier work
Simian, Rotavirus SA11 = settings: pH 10; cited from earlier work
[4] = relative to hypochlorite; cited from earlier work
[5] = concentrations up to 100 ppm, in drinking, as well as via the skin route; cited from earlier work
red blood cell = settings: cited from earlier work

In the case of `OCl` [SH, Sodium hypochlorite], the “minimum bactericidal concentration, S. aureus” value (S. aureus) is given as 10 ppm, the “minimum bactericidal concentration, E. coli” value (E. coli) is given as 10 ppm and the “minimum bactericidal concentration, MRSA” value (MRSA) is given as 10 ppm. For the same compound, the “minimum bactericidal concentration, A. niger” value (A. niger) was 1,000 ppm and the “minimum bactericidal concentration, B. subtilis (spore)” value (B. subtilis (spore)) was >1,000 ppm.

In the case of Providone iodine [PVP-I], the “minimum bactericidal concentration, S. aureus” value (S. aureus) is given as 100 ppm, the “minimum bactericidal concentration, E. coli” value (E. coli) is given as 10 ppm and the “minimum bactericidal concentration, MRSA” value (MRSA) is given as 100 ppm. The “minimum bactericidal concentration, A. niger” value (A. niger) was 1,000 ppm and the “minimum bactericidal concentration, B. subtilis (spore)” value (B. subtilis (spore)) was >1,000 ppm.

For `[O][Cl+][O-]` [Chlorine Dioxide], the “minimum bactericidal concentration, S. aureus” value (S. aureus) is given as 1 ppm, the sterilant effectiveness [1] is given as “effective sterilant” and the “CFU/ml Recovered Bacillus subtilis var. niger” value ([2]; 50 ppm gas phase) is given as 50,000 CFU/ml and 73,000 CFU/ml. For the same compound, the “Sterility (Day 14)” value ([2]; 50 ppm gas phase) was “No”, the “Log Reduction” value ([2]; 50 ppm gas phase) was 2.30 and 2.13 and the “Sterility (Day 14)” value ([2]; 100 ppm gas phase) was “Yes”. For the same compound, the “Log Reduction” value ([2]; 100 ppm gas phase) was > 6, the “CFU/ml Recovered Bacillus subtilis var. niger” value ([2]; 200 ppm gas phase) was <1 CFU/ml and the “Sterility (Day 14)” value ([2]; 200 ppm gas phase) was “Yes”. The “Log Reduction” value ([2]; 200 ppm gas phase) was >6.99, the “CFU/ml Recovered Bacillus subtilis var. niger” value ([2]; 300 ppm gas phase) was <1 CFU/ml and the “Sterility (Day 14)” value ([2]; 300 ppm gas phase) was “Yes”. For the same compound, the “Log Reduction” value ([2]; 300 ppm gas phase) was >6.99, the “CFU/ml Recovered Bacillus subtilis var. niger” value ([2]; 400 ppm gas phase) was <1 CFU/ml and the “Sterility (Day 14)” value ([2]; 400 ppm gas phase) was “Yes”. The “Log Reduction” value ([2]; 400 ppm gas phase) was >6.99, the “minimum bactericidal concentration, E. coli” value (E. coli) was 1 ppm and the “adverse effects in human volunteers” value [3] was “no adverse effects”. For the same compound, the “minimum bactericidal concentration, MRSA” value (MRSA) was 1 ppm, the “minimum bactericidal concentration, A. niger” value (A. niger) was 10 ppm and the “time to good antiviral activity” value (Simian, Rotavirus SA11) was “less than 15 seconds”. The “half-life for the elimination from the plasma” value [4] was “less than half that of hypochlorite”, the “fetal malformation or birth defects” value [5] was “no evidence of fetal malformation or birth defects” and the hematological changes (red blood cell; rats fed up to 1000 mg/l chronically for 6 months) was “no significant hematological changes”. For the same compound, the “red blood cell counts, hematocrit and hemoglobin” value (red blood cell; rats, after 9 months, all treatment groups) was “decreased” and the “minimum bactericidal concentration, B. subtilis (spore)” value (B. subtilis (spore)) was 100 ppm.

For `O=CCCCC=O` [GA, Glutaraldehyde], the “minimum bactericidal concentration, S. aureus” value (S. aureus) is given as 100,000 ppm, the “minimum bactericidal concentration, E. coli” value (E. coli) is given as 100,000 ppm and the “minimum bactericidal concentration, MRSA” value (MRSA) is given as 100,000 ppm. The “minimum bactericidal concentration, A. niger” value (A. niger) was 100,000 ppm and the “minimum bactericidal concentration, B. subtilis (spore)” value (B. subtilis (spore)) was 100,000 ppm.

For Benzalkonium chloride [BAC], the “minimum bactericidal concentration, S. aureus” value (S. aureus) is listed as 10 ppm, the “minimum bactericidal concentration, E. coli” value (E. coli) is listed as 100 ppm and the “minimum bactericidal concentration, MRSA” value (MRSA) is listed as 100 ppm. For the same compound, the “minimum bactericidal concentration, A. niger” value (A. niger) was 10,000 ppm and the “minimum bactericidal concentration, B. subtilis (spore)” value (B. subtilis (spore)) was 1,000 ppm.

For `[O-][Cl+]O` [chlorite ions], the “adverse effects in human volunteers” value [3] is listed as “no adverse effects” and the “half-life for the elimination from the plasma” value [4] is listed as “less than half that of hypochlorite”.

In the case of `N=C(NCCCCCCNC(=N)NC(=N)Nc1ccc(Cl)cc1)NC(=N)Nc1ccc(Cl)cc1.O=C(O)[C@H](O)[C@@H](O)[C@H](O)[C@H](O)CO.O=C(O)[C@H](O)[C@@H](O)[C@H](O)[C@H](O)CO` [CHG, Chlorhexidine digluconate], the “minimum bactericidal concentration, S. aureus” value (S. aureus) is listed as 10 ppm, the “minimum bactericidal concentration, E. coli” value (E. coli) is listed as 100 ppm and the “minimum bactericidal concentration, MRSA” value (MRSA) is listed as 1,000 ppm. The “minimum bactericidal concentration, A. niger” value (A. niger) was >10,000 ppm and the “minimum bactericidal concentration, B. subtilis (spore)” value (B. subtilis (spore)) was 1,000 ppm.

In the case of `CCO` [EtOH, Absolute Ethyl Alcohol], the “minimum bactericidal concentration, S. aureus” value (S. aureus) is given as 500,000 ppm, the “minimum bactericidal concentration, E. coli” value (E. coli) is given as 500,000 ppm and the “minimum bactericidal concentration, MRSA” value (MRSA) is given as 500,000 ppm. The “minimum bactericidal concentration, A. niger” value (A. niger) was 500,000 ppm and the “minimum bactericidal concentration, B. subtilis (spore)” value (B. subtilis (spore)) was 500,000 ppm.

For `Oc1ccccc1` [PN, Phenol], the “minimum bactericidal concentration, S. aureus” value (S. aureus) is listed as >10,000 ppm, the “minimum bactericidal concentration, E. coli” value (E. coli) is listed as 10,000 ppm and the “minimum bactericidal concentration, MRSA” value (MRSA) is listed as >10,000 ppm. For the same compound, the “minimum bactericidal concentration, A. niger” value (A. niger) was >10,000 ppm and the “minimum bactericidal concentration, B. subtilis (spore)” value (B. subtilis (spore)) was >10,000 ppm.
